Results reported in patent US11524010B2, “Substituted quinazoline sulfonamides as thioredoxin interacting protein (TXNIP) inhibitors” (SOUTHERN RESEARCH INSTITUTE, priority 2017, dated 2022).

Tests used:
[1] = test system: TXNIP; assay: Inhibition of glucose-induced endogenous TXNIP expression in INS-1 cells (qRT-PCR); type: cell-based, Rat; conditions: 25 mM glucose; for inhibition at 1.5 µM / inhibition at 12.5 µM: Rattus norvegicus, INS1, 24 h
Description: The Rat INS-1 cell line was obtained from UAB and maintained in RPMI-1640 (Invitrogen #11875) supplemented with 10% fetal bovine serum (FBS), 100 U/ml penicillin and […] streptomycin, 10 mM HEPES, 1 mM Sodium Pyruvate, 50 μM 2-Mercaptoethanol, and 11.1 mM Glucose in a humidified incubator with a 5% C02 atmosphere at 37° C. 4×10^4 cells per well were seeded to 96-well plate and incubated at 37° C. overnight. A subset of the cells were then cultured in medium with 5 mM Glucose for 24 hrs and then treated in medium with 25 mM glucose with or without compounds to be tested for another 24 hrs.
For the primary high throughput screening (HTS) assay, stably transfected, monoclonal INS-1 cells were split using Trypsin (2 ml per T75 flask) and seeded at a density of 10^4/well in a 384-well plate and incubated overnight at low, 5 mM glucose. The next day, the medium was changed to high glucose (25 mM) or high glucose plus the small molecules to be tested and luciferase assays were performed 24 h later. […] For secondary screens, total RNA was extracted from 96-well cultured cells using RNeasy 96 kit (Qiagen #74181) following the manufacturer's protocol using spin technology. Then a one-step qRT-PCR amplification was performed using QuantiFast SYBR Green RT-PCR kit (Qiagen #204154) and was carried out in a 10 μl reaction which consisted of 2 μl RNA, 0.5 μM each of primers (Rat TXNIP 5′ primer: […] (SEQ ID NO:1) and Rat TXNIP 3′ primer: […] (SEQ ID NO:2); Or Rat 18S rRNA 5′ primer: […] (SEQ ID NO:3) and Rat 18S rRNA 3′ primer: […]) (SEQ ID NO:4), 5 μl 2×SYBR Green Master Mix, 0.1 μl 10× QuantiFast RT Mix. The SYBR Green assay was performed using a LightCycler 480 II (Roche Applied Science) with an initial incubation at 50° C. for 10 min for RT followed by denaturation at 95° C. for 5 min. Forty cycles of amplification were performed using a thermal cycling profile of 95° C. for 10s, 60° C. for 30 s. Subsequently, a melting curve was recorded by holding at 95° C. for 60 s, cooling to 60° C. for 60 s, and then heating at 0.11° C./s up to 95° C. The data was collected and analyzed using the LightCycler 480 Software Release 1.5.0 SP3. The relative amount of TXNIP mRNA was normalized to 18 s rRNA level as a housekeeping gene, and the data was analyzed according to the 2^−ΔΔCT method (1). The transformed data was expressed as % inhibition and compound IC50 calculated by a 4-parameter logistic fit of the data using GraphPad Prism 7.

[2] = INS-1 cell viability (Cell Titer-Glo, ATP); type: cell-based, Rat; conditions: rat, INS-1 cells, 72 hrs treatment
Description: INS-1 cell viability was determined based on quantification of ATP using Cell Titer-Glo Luminescent Cell Viability Assay kit (Promega #G7572), which indicates the presence of metabolically active cells. Briefly, INS-1 cells were seeded into 96-well plates at a cell density of 4.5×10^4 and 3.5×10^4 cells per well and incubated overnight at 37° C. with 5% CO2. On the following day, cells were treated with compounds for 24 hrs and 72 hrs respectively. Cell Titer-Glo reagent was added to the cells and Luminescence was acquired on Synergy 4 Reader ([…]).

| SMILES | inhibition at 1.5 µM ([1]; 1.5 μM compound) [%] | inhibition at 12.5 µM ([1]; 12.5 μM compound) [%] | CC50 at 72 h [2] [µM] | TXNIP % Inhibition at 1.5 μM ([1]; 1.5 μM compound, 24 hrs) [%] | TXNIP % Inhibition at 12.5 μM ([1]; 12.5 μM compound, 24 hrs) [%] |
| --- | --- | --- | --- | --- | --- |
| CS(=O)(=O)NCC1CCCN(c2ncnc3ccc(C(=O)O)cc23)C1 (centres unmarked) [Compound 19, 4-(3-(methylsulfonamidomethyl)piperidin-1-yl)quinazoline-6-carboxylic acid] | 0 | 5 | > 100 | – | – |
| CS(=O)(=O)NC1CCCN(c2ncnc3cc(F)c(F)cc23)C1 (centres unmarked) [Compound 33, N-(1-(6,7-difluoroquinazolin-4-yl)piperidin-3-yl)methanesulfonamide] | 29 | 68 | 68 | – | – |
| CS(=O)(=O)NCC1CCCN(c2ncnc3cccc(F)c23)C1 (centres unmarked) [Compound 2, N-((1-(5-fluoroquinazolin-4-yl)piperidin-3-yl)methyl)methanesulfonamide] | 13 | 61 | > 100 | – | – |
| CS(=O)(=O)NCC1CCCN(c2ncnc3cc(F)c(F)cc23)C1 (centres unmarked) [Compound 7, N-((1-(6,7-difluoroquinazolin-4-yl)piperidin-3-l)methyl)methanesulfonamide] | 40 | 54 | > 100 | – | – |
| CS(=O)(=O)NC1CCCN(c2ncnc3cc(F)ccc23)C1 (centres unmarked) [Compound 32, N-(1-(7-fluoroquinazolin-4-yl)piperidin-3-yl)methanesulfonamide] | 21 | 62 | 65 | – | – |
| CS(=O)(=O)NCC1CCCN(c2ncnc3ccc(F)cc23)C1 (centres unmarked) [Compound 1, N-((1-(6-fluoroquinazolin-4-yl)piperidin-3-yl)methyl)methanesulfonamide] | 44 | 54 | > 100 | – | – |
| O=S(=O)(NCC1CCCN(c2ncnc3ccc(C(F)(F)F)cc23)C1)c1ccccc1 (centres unmarked) [Compound 54, N-((1-(6-(trifluoromethyl)quinazolin-4-yl)piperidin-3-yl)methyl)benzenesulfonamide] | 19 | 53 | 17 | – | – |
| CS(=O)(=O)NCC1CCCN(c2ncnc3cc(N4CCOCC4)c(F)cc23)C1 (centres unmarked) [Compound 23, N-((1-(6-fluoro-7-morpholinoquinazolin-4-yl)piperidin-3-yl)methyl)methanesulfonamide] | 0 | 23 | > 100 | – | – |
| CS(=O)(=O)NCC1CCCN(c2ncnc3cc(F)c(C#N)cc23)C1.Cl (centres unmarked) [Compound 29a, N-((1-(6-cyano-7-fluoroquinazolin-4-yl)piperidin-3-yl)methyl)methanesulfonamide hydrochloride] | – | – | – | 35 | 55 |
| CC(C)N(CC1CCCN(c2ncnc3ccccc23)C1)S(C)(=O)=O (centres unmarked) [Compound 40, N-isopropyl-N-((1-(quinazolin-4-yl)piperidin-3-yl)methyl)methanesulfonamide] | 14 | 46 | 70 | – | – |
| COc1ccc2ncnc(N3CCCC(CNS(C)(=O)=O)C3)c2c1 (centres unmarked) [Compound 5, N-((1-(6-methoxyquinazolin-4-yl)piperidin-3-yl)methyl)methanesulfonamide] | 30 | 58 | > 100 | – | – |
| CS(=O)(=O)NCC1CCN(c2ncnc3ccc(F)cc23)C1 (centres unmarked) [Compound 51, N-((1-(6-fluoroquinazolin-4-yl)pyrrolidin-3-yl)methyl)methanesulfonamide] | 18 | 20 | > 100 | – | – |
| CS(=O)(=O)NCC1CCCN(c2ncnc3cc(O)c(C(F)(F)F)cc23)C1 (centres unmarked) [Compound 63, N-((1-(7-hydroxy-6-(trifluoromethyl)quinazolin-4-yl)piperidin-3-yl)methyl)methanesulfonamide] | 10 | 5 | > 100 | – | – |
| CS(=O)(=O)NCC1CCCN(c2ncnc3cc(C#N)c(F)cc23)C1 (centres unmarked) [Compound 20, N-((1-(7-cyano-6-fluoroquinazolin-4-yl)piperidin-3-yl)methyl)methanesulfonamide] | 19 | 30 | > 100 | – | – |
| CS(=O)(=O)NC1CCCN(c2ncnc3cc(F)c(C#N)cc23)C1 (centres unmarked) [Compound 37, N-(1-(6-cyano-7-fluoroquinazolin-4-yl)piperidin-3-yl)methanesulfonamide] | 0 | 24 | > 100 | – | – |
| O=S(=O)(NCC1CCCN(c2ncnc3ccc(F)cc23)C1)C1CC1 (centres unmarked) [Compound 58, N-((1-(6-fluoroquinazolin-4-yl)piperidin-3-yl)methyl)cyclopropanesulfonamide] | 15 | 65 | 57 | – | – |
| CS(=O)(=O)NCC1CCCN(c2ncnc3ccc(N4CCOCC4)cc23)C1 (centres unmarked) [Compound 24, N-((1-(6-morpholinoquinazolin-4-yl)piperidin-3-yl)methyl)methanesulfonamide] | 20 | 20 | > 100 | – | – |
| CC(C)(C)C(=O)Nc1ccc2ncnc(N3CCCC(CNS(C)(=O)=O)C3)c2c1 (centres unmarked) [Compound 25, N-(4-(3-(methylsulfonamidomethyl)piperidin-1-yl)quinazolin-6-yl)pivalamide] | 28 | 51 | > 100 | – | – |
| CS(=O)(=O)NCC1CCCN(c2ncnc3cc(F)c(C(F)(F)F)cc23)C1 (centres unmarked) [Compound 30, N-((1-(7-fluoro-6-(trifluoromethyl)quinazolin-4-yl)piperidin-3-yl)methyl)methane-sulfonamide] | 9 | 33 | > 100 | – | – |
| CS(=O)(=O)NCC1CCCN(c2ncnc3cc(C(F)(F)F)ccc23)C1 (centres unmarked) [Compound 12, N-((1-(7-(trifluoromethyl)quinazolin-4-yl)piperidin-3-yl)methyl)methanesulfonamide] | 0 | 13 | > 100 | – | – |
| CS(=O)(=O)NCC1CCCN(c2nc(-c3ccccc3)nc3ccccc23)C1 (centres unmarked) [Compound 9, N-((1-(2-phenylquinazolin-4-yl)piperidin-3-yl)methyl)methanesulfonamide] | 0 | 10 | 71 | – | – |
| CS(=O)(=O)NCC1CN(c2ncnc3cc(C(N)=O)c(F)cc23)CCO1 (centres unmarked) [Compound 47, 6-fluoro-4-(2-(methylsulfonamidomethyl)morpholino)quinazoline-7-carboxamide] | 5 | 7 | > 100 | – | – |
| CS(=O)(=O)NCC1CCN(c2ncnc3ccc(F)cc23)CC1 [Compound 44, N-((1-(6-fluoroquinazolin-4-yl)piperidin-4-yl)methyl)methanesulfonamide] | 4 | 22 | > 100 | – | – |
| CC(C)Nc1nc(N2CCCC(CNS(C)(=O)=O)C2)c2ccccc2n1 (centres unmarked) [Compound 16, N-((1-(2-(isopropylamino)quinazolin-4-yl)piperidin-3-yl)methyl)methanesulfonamide] | 0 | 33 | > 100 | – | – |
| CS(=O)(=O)NCC1CN(c2ncnc3ccc(F)cc23)CCO1 (centres unmarked) [Compound 46, N-((4-(6-fluoroquinazolin-4-yl)morpholin-2-yl)methyl)methanesulfonamide] | 0 | 55 | > 100 | – | – |
| O=S(=O)(NCC1CCCN(c2ncnc3ccc(C(F)(F)F)cc23)C1)C1CC1 (centres unmarked) [Compound 57, N-((1-(6-(trifluoromethyl)quinazolin-4-yl)piperidin-3-yl)methyl)cyclopropanesulfonamide] | 33 | 67 | 43 | – | – |
